The numbers were not newly measured in paper PMC6222850, “^66Ga: A Novelty or a Valuable Preclinical Screening Tool for the Design of Targeted Radiopharmaceuticals?” (Molecules : A Journal of Synthetic Chemistry and Natural …, 2018), which cites them from elsewhere.

The data set has as its system LNCaP tumors. The arrangement: method as in PMID 29623376.

`O=C(O)CC[C@H](NC(=O)N[C@@H](CCCCNC(=O)[C@H](Cc1ccc2ccccc2c1)NC(=O)[C@H]1CC[C@H](CNC(=O)CN2CCN(CC(=O)O)CCN(CC(=O)O)CCN(CC(=O)O)CC2)CC1)C(=O)O)C(=O)O` [PSMA-617]: the Clearance from blood result was “fast clearance from blood”.
